Laboratory results taken from ChEMBL document CHEMBL5104093, “A comprehensive review on β-lapachone: Mechanisms, structural modifications, and therapeutic potentials” (Eur J Med Chem, 2021).
In brackets after ≈: the same amount, converted by molar mass.

Assays:
[1] = test system: MDA-MB-435; assay: Cytotoxicity against human MDA-MB-435 cells assessed as reduction in cell viability incubated for 72 hrs by MTT assay; format: functional, cell-based; settings: MDA-MB-435, 72 h
[2] = test system: HCT-8; assay: Cytotoxicity against human HCT-8 cells assessed as reduction in cell viability incubated for 72 hrs by MTT assay; format: functional, cell-based; settings: HCT-8, 72 h
[3] = test system: HL-60; assay: Cytotoxicity against human HL-60 cells assessed as reduction in cell viability incubated for 72 hrs by MTT assay; format: functional, cell-based; settings: HL-60, 72 h
[4] = test system: SF-295; assay: Cytotoxicity against human SF-295 cells assessed as reduction in cell viability incubated for 72 hrs by MTT assay; format: functional, cell-based; settings: SF-295, 72 h
[5] = test system: Trypanosoma cruzi; assay: Antitrypanosomal activity against bloodstream form of Trypanosoma cruzi Y trypomastigotes infected in Swiss Webster mouse assessed as reduction in viable parasite in blood incubated for 24 hrs by Neubauer counting chamber based light microscopic analysis; format: functional, organism-based
[6] = test system: Mycobacterium tuberculosis; assay: Antimycobacterial activity against Mycobacterium tuberculosis H37Rv ATCC 27294 assessed as bacterial growth inhibition incubated for 7 days by resazurin dye based microtiter assay; format: functional; settings: ATCC 27294, 168 h, time 7 day
[7] = test system: OVCAR-8; assay: Cytotoxicity against human OVCAR-8 cells assessed as reduction in cell viability by MTT assay; format: functional, cell-based
[8] = test system: SF-295; assay: Cytotoxicity against human SF-295 cells assessed as reduction in cell viability by MTT assay; format: functional, cell-based
[9] = test system: HCT-116; assay: Cytotoxicity against human HCT-116 cells assessed as reduction in cell viability by MTT assay; format: functional, cell-based
[10] = test system: HL-60; assay: Cytotoxicity against human HL-60 cells assessed as reduction in cell viability by MTT assay; format: functional, cell-based
[11] = test system: Jurkat; assay: Cytotoxicity against human Jurkat cells assessed as reduction in cell viability incubated for 72 hrs by MTT assay; format: functional, cell-based
[12] = test system: MOLT-4; assay: Cytotoxicity against human MOLT-4 cells assessed as reduction in cell viability incubated for 72 hrs by MTT assay; format: functional, cell-based; settings: MOLT-4, 72 h
[13] = test system: K562; assay: Cytotoxicity against human K562 cells assessed as reduction in cell viability incubated for 72 hrs by MTT assay; format: functional, cell-based; settings: K562, 72 h
[14] = test system: Trypanosoma cruzi; assay: Antitrypanosomal activity against bloodstream form of Trypanosoma cruzi trypomastigotes infected in Swiss mouse assessed as reduction in viable parasite in blood incubated for 24 hrs by Neubauer counting chamber method; format: functional, organism-based
[15] = test system: PC-3; assay: Cytotoxicity against human PC-3 cells assessed as reduction in cell viability incubated for 72 hrs by MTT assay; format: functional, cell-based; settings: PC-3, 72 h
[16] = test system: B16; assay: Cytotoxicity against mouse B16 cells assessed as reduction in cell viability incubated for 72 hrs by MTT assay; format: functional, cell-based; settings: B16, 72 h
[17] = test system: Trypanosoma cruzi; assay: Antitrypanosomal activity against bloodstream form of Trypanosoma cruzi Y trypomastigotes infected in albino mouse assessed as reduction in viable parasite in blood incubated for 24 hrs by Neubauer counting chamber method; format: functional, organism-based
[18] = test system: MCF7; assay: Cytotoxicity against human MCF7 cells assessed as reduction in cell viability incubated for 72 hrs by MTT assay; format: functional, cell-based; settings: MCF7, 72 h
[19] = test system: HEp-2; assay: Cytotoxicity against human HEp-2 cells assessed as reduction in cell viability incubated for 72 hrs by MTT assay; format: functional, cell-based; settings: HEp-2, 72 h
[20] = test system: NCI-H292; assay: Cytotoxicity against human NCI-H292 cells assessed as reduction in cell viability incubated for 72 hrs by MTT assay; format: functional, cell-based; settings: NCI-H292, 72 h
[21] = test system: Staphylococcus aureus; assay: Antibacterial activity against Staphylococcus aureus 2065 MA assessed as diameter of bacterial growth inhibition by Mueller-Hinton broth based assay; format: functional
[22] = test system: HepG2; assay: Cytotoxicity against human HepG2 cells assessed as reduction in cell viability incubated for 48 hrs by MTT assay; format: functional, cell-based; settings: HepG2, 48 h
[23] = Cytotoxicity against monkey LLC-MK2 cells assessed as reduction in cell viability incubated for 96 hrs by trypan blue assay; format: toxicity, cell-based, Macaca mulatta; settings: rhesus monkey, read-out: LC50
[24] = test system: Trypanosoma cruzi; assay: Antitrypanosomal activity against bloodstream form of Trypanosoma cruzi Y trypomastigotes infected in albino mouse assessed as reduction in viable parasite in blood by Neubauer counting chamber method; format: functional, organism-based

**Q.** What does the source list for O=C1C(=O)c2c(O)cccc2C2=C1CCC(c1ccccc1)O2 (stereo not drawn)?
**A.** IC50 [1]: 0.11 µM; IC50 [2]: 0.11 µM; IC50 [3]: 0.11 µM; IC50 [4]: 0.11 µM

**Q.** For CC1(C)OC2=C(CC1[Se]c1ccccc1)C(=O)C(=O)c1ccccc12 (stereo not drawn), which IC50 [5] is on record?
**A.** 103 µM

**Q.** For CC1(C)Oc2c(c3nc4ccccc4nc3c3ccccc23)C1N=[N+]=[N-] (stereo not drawn), which MIC [6] is on record?
**A.** 25 µg/mL (≈ 73.2 µM)

**Q.** For CC1(C)O[C@@H]2O[C@@H](COC3C4=C(OC3(C)C)c3ccccc3C(=O)C4=O)[C@H]3OC(C)(C)O[C@H]3[C@@H]2O1 (stereo partly drawn), which IC50 [7] is on record?
**A.** 0.16 µM

**Q.** And the IC50 [8]?
**A.** 0.16 µM

**Q.** And the IC50 [9]?
**A.** 0.16 µM

**Q.** And the IC50 [10]?
**A.** 0.16 µM

**Q.** For CC1(C)CC2=C(O1)c1ccccc1C(=O)C2=O [NOR-BETA-LAPACHONE], which IC50 [11] is on record?
**A.** 1.34 µM

**Q.** For CC1(C)CCc2c(c3ccccc3c3nc(-c4ccc([N+](=O)[O-])cc4)[nH]c23)O1, which MIC [6] is on record?
**A.** > 100 µg/mL

**Q.** Which MIC [6] does the source give for CC1(C)OC2=C(C(=O)C(=O)c3ccccc32)[C@H](n2cc(-c3ccccc3)nn2)[C@H]1Br here?
**A.** < 6.25 µg/mL

**Q.** With O=C1C(=O)c2ccccc2C2=C1CC(CI)O2 (stereo not drawn) as the compound, how does the IC50 [11] read?
**A.** 1.38 µM

**Q.** What about the IC50 [12] of the same compound?
**A.** 1.38 µM

**Q.** And the IC50 [13]?
**A.** 1.38 µM

**Q.** For CC1(C)CCc2c(c3ccccc3c3nc(-c4cccc(C(F)(F)F)c4)[nH]c23)O1, which MIC [6] is on record?
**A.** 1.56 µg/mL (≈ 3.94 µM)

**Q.** For Cc1ccccc1-c1nc2c([nH]1)c1c(c3ccccc32)OC(C)(C)CC1, which MIC [6] is on record?
**A.** 1.56 µg/mL (≈ 4.56 µM)

**Q.** What about the IC50 [14] of the same compound?
**A.** 37.5 µM

**Q.** For CC1(C)OC2=C(C(=O)C(=O)c3ccccc32)C1n1cc(C2=CCCCC2)nn1 (stereo not drawn), which IC50 [1] is on record?
**A.** < 1.25 µM

**Q.** What about the IC50 [2] of the same compound?
**A.** < 1.25 µM

**Q.** And the IC50 [3]?
**A.** < 5 µM

**Q.** And the IC50 [15]?
**A.** < 1.25 µM

**Q.** What about the IC50 [16] of the same compound?
**A.** < 1.25 µM

**Q.** What about the IC50 [4] of the same compound?
**A.** < 1.25 µM

**Q.** Which IC50 [17] does the source give for COc1ccc(-c2nc3c([nH]2)c2c(c4ccccc43)OC(C)(C)CC2)cc1 here?
**A.** 259 µM

**Q.** For COc1ccc(-c2cn([C@H]3C4=C(OC(C)(C)[C@@H]3Br)c3ccccc3C(=O)C4=O)nn2)cc1, which MIC [6] is on record?
**A.** < 6.25 µg/mL

**Q.** Which IC50 [1] does the source give for CC1(C)OC2=C(C(=O)C(=O)c3ccccc32)C1N=[N+]=[N-] (stereo not drawn) here?
**A.** 1.19 µM

**Q.** What about the IC50 [2] of the same compound?
**A.** 1.19 µM

**Q.** What about the IC50 [3] of the same compound?
**A.** 1.19 µM

**Q.** And the IC50 [15]?
**A.** 1.19 µM

**Q.** And the IC50 [16]?
**A.** 1.19 µM

**Q.** What about the IC50 [4] of the same compound?
**A.** 1.19 µM

**Q.** For CC(=O)OCC1CC2=C(OC1(C)C)c1ccccc1C(=O)C2=O (stereo not drawn), which IC50 [18] is on record?
**A.** 2.73 µM

**Q.** What about the IC50 [19] of the same compound?
**A.** 2.26 µM

**Q.** And the IC50 [20]?
**A.** 2.26 µM

**Q.** With Cc1cccc(S(=O)(=O)C2C3=C(OC2(C)C)c2ccccc2C(=O)C3=O)c1 (stereo not drawn) as the compound, how does the zone diameter [21] read?
**A.** 7 mm

**Q.** Which MIC [6] does the source give for CC1(C)Oc2c(c3nc4ccccc4nc3c3ccccc23)C=C1Br here?
**A.** < 6.25 µg/mL

**Q.** What does the source list for CC1(C)OC2=C(C(=O)C(=O)c3ccccc32)C1CO (stereo not drawn)?
**A.** IC50 [19]: 0.46 µM; IC50 [20]: 0.46 µM

**Q.** Which IC50 [22] does the source give for O=C1C(=O)c2ccccc2C2=C1CCCO2 here?
**A.** 0.92 µM

**Q.** With CC1(C)CCc2c(c3ccccc3c3nc(-c4ccc5c(c4)OCO5)oc23)O1 as the compound, how does the IC50 [17] read?
**A.** 270 µM

**Q.** What does the source list for CC(C)(O)c1cn(C2C3=C(OC2(C)C)c2ccccc2C(=O)C3=O)nn1 (stereo not drawn)?
**A.** IC50 [1]: 2.8 µM; IC50 [2]: 2.8 µM; IC50 [3]: 2.8 µM; IC50 [15]: 2.8 µM; IC50 [16]: 2.8 µM; IC50 [4]: 2.8 µM

**Q.** With C=CCC1Cc2c(c3ccccc3c3nc4ccccc4nc23)OC1(C)C (stereo not drawn) as the compound, how does the MIC [6] read?
**A.** 0.78 µg/mL (≈ 2.2 µM)

**Q.** With CC1(C)OC2=C(C(=O)C(=O)c3ccccc32)[C@H](n2cc(-c3ccc(Br)cc3)nn2)[C@H]1Br as the compound, how does the MIC [6] read?
**A.** < 6.25 µg/mL

**Q.** With CC1(C)OC2=C(C(=O)C(=O)c3ccccc32)C1n1cc(CO)nn1 (stereo not drawn) as the compound, how does the IC50 [1] read?
**A.** 3.38 µM

**Q.** What about the IC50 [2] of the same compound?
**A.** 3.38 µM

**Q.** What about the IC50 [3] of the same compound?
**A.** 3.38 µM

**Q.** What about the IC50 [15] of the same compound?
**A.** 3.38 µM

**Q.** What about the IC50 [16] of the same compound?
**A.** 3.38 µM

**Q.** And the IC50 [4]?
**A.** 3.38 µM

**Q.** Which results are given for CC(=O)OCC1C2=C(OC1(C)C)c1ccccc1C(=O)C2=O (stereo not drawn)?
**A.** IC50 [19]: 0.6 µM; IC50 [20]: 0.6 µM

**Q.** Which IC50 [7] does the source give for Cc1ccc(-c2cc(NC3C4=C(OC3(C)C)c3ccccc3C(=O)C4=O)n(-c3ccccc3)n2)cc1 (stereo not drawn) here?
**A.** 0.99 µM

**Q.** And the IC50 [8]?
**A.** 1.05 µM

**Q.** What about the IC50 [9] of the same compound?
**A.** 0.72 µM

**Q.** What about the IC50 [10] of the same compound?
**A.** 0.34 µM

**Q.** For CC1CC2=C(O1)c1ccccc1C(=O)C2=O (stereo not drawn), which IC50 [3] is on record?
**A.** 1.11 µM

**Q.** With CO[C@@H]1O[C@H](COC2C3=C(OC2(C)C)c2ccccc2C(=O)C3=O)[C@H]2OC(C)(C)O[C@@H]12 (stereo partly drawn) as the compound, how does the IC50 [7] read?
**A.** 0.16 µM

**Q.** What about the IC50 [8] of the same compound?
**A.** 0.16 µM

**Q.** What about the IC50 [9] of the same compound?
**A.** 0.16 µM

**Q.** What about the IC50 [10] of the same compound?
**A.** 0.16 µM

**Q.** With CCCCCCCCC1CC2=C(O1)c1ccccc1C(=O)C2=O (stereo not drawn) as the compound, how does the CC50 at 96 h [23] read?
**A.** 2200 µM

**Q.** And the IC50 [24]?
**A.** 86.7 µM

**Q.** Which IC50 [1] does the source give for O=C1C(=O)c2c(O)cccc2C2=C1CCC(c1ccc(F)cc1)O2 (stereo not drawn) here?
**A.** 0.15 µM

**Q.** What about the IC50 [2] of the same compound?
**A.** 0.21 µM

**Q.** And the IC50 [3]?
**A.** 0.21 µM

**Q.** And the IC50 [4]?
**A.** 0.21 µM
